According to patent publication US11873298B2, “Compounds and uses thereof” (JANSSEN PHARMACEUTICA NV, priority 2017, dated 2024):

Legend:
SCD5 = target: T1, SCD5 (Homo sapiens, UniProt Q86SK9); experiment: Growth inhibition of humanized yeast strain expressing SCD5 as sole desaturase; assay type: cell-based
T1 construct: host or cells: S. cerevisiae ole1Δ strain (W303 pdr1Δ pdr3Δ background), plasmid pRS316 with TDH3 promoter and CYC1 terminator
T1 sequence (Q86SK9 1-330): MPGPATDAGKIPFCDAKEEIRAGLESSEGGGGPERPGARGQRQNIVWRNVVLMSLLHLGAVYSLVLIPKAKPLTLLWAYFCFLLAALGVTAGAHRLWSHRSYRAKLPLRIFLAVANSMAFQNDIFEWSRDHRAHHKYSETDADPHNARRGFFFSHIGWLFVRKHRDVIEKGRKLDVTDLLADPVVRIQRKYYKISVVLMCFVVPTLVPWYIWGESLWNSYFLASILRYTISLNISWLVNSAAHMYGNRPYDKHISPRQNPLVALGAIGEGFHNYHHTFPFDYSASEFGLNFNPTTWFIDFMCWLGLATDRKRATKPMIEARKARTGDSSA
In short: (§1)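 Yeast ole1Δ strain (W303 pdr1Δ pdr3Δ background) carrying plasmid-borne Ole1, SCD1 or SCD5 as sole desaturase was grown in uracil-lacking media, pre-cultured in raffinose for 6 h, then seeded in galactose medium with compound in DMSO. Growth was read as OD600 after 30° C. incubation: 24 h for Ole1, 40 h for SCD1/SCD5.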

SCD1 = target: T2, SCD1 (Homo sapiens, UniProt O00767); experiment: Growth inhibition of humanized yeast strain expressing SCD1 as sole desaturase; assay type: cell-based
T2 construct: host or cells: S. cerevisiae ole1Δ strain (W303 pdr1Δ pdr3Δ background), plasmid pRS316 with TDH3 promoter and CYC1 terminator
T2 sequence (O00767 1-359): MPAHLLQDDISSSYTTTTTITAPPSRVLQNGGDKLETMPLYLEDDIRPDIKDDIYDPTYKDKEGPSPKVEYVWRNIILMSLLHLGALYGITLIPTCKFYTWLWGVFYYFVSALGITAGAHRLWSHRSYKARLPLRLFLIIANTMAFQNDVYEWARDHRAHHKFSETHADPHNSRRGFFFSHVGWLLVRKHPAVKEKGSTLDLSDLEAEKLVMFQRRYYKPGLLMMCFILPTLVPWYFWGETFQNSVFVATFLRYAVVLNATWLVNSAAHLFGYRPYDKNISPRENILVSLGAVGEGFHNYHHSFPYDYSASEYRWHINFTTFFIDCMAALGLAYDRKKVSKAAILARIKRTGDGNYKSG
In short: as §1

[1] = growth inhibition of humanized yeast strain expressing human SCD5
[2] = growth inhibition of humanized yeast strain expressing human SCD1
[3] = humanized yeast strain expressing SCD5
[4] = humanized yeast strain expressing SCD1

Row | SMILES | IC50 (SCD5; humanized yeast strain, 40 h) | IC50 (SCD1; humanized yeast strain, 40 h) | other results
1 | COC(=O)N1CCN(c2noc(-c3ccc4cnn(C5CN(C)C5)c4c3)n2)CC1 [Compound 960] | 10 nM | 20.4 µM | 
2 | O=C(c1ccccc1F)N1CCC(c2noc(-c3ccnc(Cl)c3)n2)CC1 [Compound 1132] | > 45000 nM | > 45 µM | 
3 | CC(C)(C)OC(=O)N1CCC(c2noc(N3CCc4nn(C5COC5)cc4C3)n2)CC1 [Compound 1172] | 9890 nM | ≥ 45 µM | 
4 | CCC(=O)N1CCC(c2noc(-c3ccc4cnn([C@@H]5CCOC5)c4c3)n2)CC1 [Compound 1050] | 20 nM | > 45 µM | 
5 | O=C(C1CCC1)N1CCN(c2noc(-c3ccnc(NC4COC4)c3)n2)CC1 [Compound 1001] | 15600 nM | > 45 µM | 
6 | CC(C)C(=O)N1CCN(c2noc(-c3ccnc(NC4COC4)c3)n2)CC1 [Compound 1133] | > 45000 nM | > 45 µM | 
7 | CC(C)(C)CC(=O)N1CCC(c2nc(-c3cccc(C4CCOC4)c3)no2)CC1 (stereo not drawn) [Compound 782] | 149 nM | > 45 µM | 
8 | C=C(F)/C=C/n1cc2ccc(-c3noc(C4CCN(C(=O)OC(C)(C)C)CC4)n3)cc2n1 [Compound 739] |  |  | IC50 (SCD5; [1]): > 45000 nM; IC50 (SCD1; [2]): > 45 µM
9 | CC(C)(C)OC(=O)N1CC2(C1)CN(c1noc(-c3ccc4cnn(C5COC5)c4c3)n1)C2 [Compound 1074] | 1960 nM | 5.43 µM | 
10 | CC(C1CC1)n1ncc2ccc(-c3noc(C4CCN(C(=O)OC(C)(C)C)CC4)n3)cc21 (stereo not drawn) [Compound 640] |  |  | IC50 (SCD5; [1]): 3980 nM; IC50 (SCD1; [2]): > 45 µM
11 | COC(=O)N1CCN(c2nc(-c3ccc4cnn(C5CNC5)c4c3)no2)CC1 [Compound 913] | 13800 nM | > 45 µM | 
12 | CC(C)(C)OC(=O)N1CCC(c2noc(-c3ccnc(C4CCCO4)c3)n2)CC1 (stereo not drawn) [Compound 1003] | 457 nM | > 45 µM | 
13 | O=C(N1CCN(c2noc(-c3ccnc(Cl)c3)n2)CC1)C1(F)CC1 [Compound 1120] | 32800 nM | > 45 µM | 
14 | COC(=O)N1CCC(c2noc(-c3ccc4cnn(C5CCOC5)c4c3)n2)CC1 (stereo not drawn) [Compound 813] | 10 nM | > 45 µM | 
15 | CC(C)(C)OC(=O)N1CCC(c2noc(-c3ccc4oc(=O)n(C5COC5)c4c3)n2)CC1 [Compound 1005] | 10 nM | > 45 µM | 
16 | CC(CF)n1ncc2ccc(-c3noc(C4CCN(C(=O)CC5(C)CC5)CC4)n3)cc21 (stereo not drawn) [Compound 585] |  |  | IC50 (SCD5; [3]): 1810 nM; IC50 (SCD1; [4]): > 45 µM
17 | COC1CCC(S(=O)(=O)N2CCC(c3nc(-c4ccc5cnn(C(C)C)c5c4)no3)CC2)CC1 (stereo not drawn) [Compound 675] |  |  | IC50 (SCD5; [1]): 10 nM; IC50 (SCD1; [2]): > 45 µM
18 | CC(C)(C)CC(=O)N1CCC(c2nc(-c3ccc4cnn(C5COC5)c4c3)no2)CC1 [Compound 617] |  |  | IC50 (SCD5; [1]): 121 nM; IC50 (SCD1; [2]): > 45 µM
19 | CC(C)(C)OC(=O)N1CCN(c2noc(-c3ccnc(OC4COC4)c3)n2)CC1 [Compound 977] | 5940 nM | > 45 µM | 

Row | SMILES | IC50 (SCD5; humanized yeast strain, 40 h) | IC50 (SCD1; humanized yeast strain, 40 h) | other results
20 | O=C(C1CC2(CC2)C1)N1CCN(c2noc(-c3ccc4cnn(C5COC5)c4c3)n2)CC1 [Compound 864] | > 45000 nM | > 45 µM | 
21 | COC(=O)N1CCC(c2nc(-c3ccc4cnn(C5CN(C(=O)OC(C)(C)C)C5)c4c3)no2)CC1 [Compound 951] | > 45000 nM | > 45 µM | 
22 | CC(C)n1ncc2ccc(-c3nnc(C4CCN(C(=O)OC(C)(C)C)CC4)o3)cc21 [Compound 849] | 644 nM | > 45 µM | 
23 | CC(C)(C)OC(=O)N1CCC(N2CCN(c3ccc4cnn(C5COC5)c4c3)C2=O)CC1 [Compound 810] | 2500 nM | > 45 µM | 
24 | CC(C)n1ncc2ccc(-c3ccc(C4CCN(C(=O)OC(C)(C)C)C4)nn3)cc21 (stereo not drawn) [Compound 733] |  |  | IC50 (SCD5; [1]): 2730 nM; IC50 (SCD1; [2]): > 45 µM
25 | CC(C)n1ncc2ccc(-c3nc(N4CCC5(CCO5)CC4)no3)cc21 [Compound 762] | 5250 nM | > 45 µM | 
26 | CC(C)(C)OC(=O)N1CCC(c2noc(-c3ccc4cnn(C5CNC5)c4c3)n2)CC1 [Compound 918] | 800 nM | > 45 µM | 
27 | COC(=O)N1CCC(c2nc(-c3ccnc(C(O)C(C)C)c3)no2)CC1 (stereo not drawn) [Compound 856] | > 45000 nM | > 45 µM | 
28 | CC(C)n1ncc2ccc(-c3noc(C4CCN(C(=O)CNC(=O)c5cccc(Cl)c5)CC4(F)F)n3)cc21 (stereo not drawn) [Compound 522] |  |  | IC50 (SCD5; [3]): > 45000 nM; IC50 (SCD1; [4]): > 45 µM
29 | CC(C)n1ncc2ccc(-c3noc(N4C[C@H]5CN(C(=O)C(C)(C)C)C[C@H]5C4)n3)cc21 [Compound 764] | 16700 nM | > 45 µM | 
30 | CC(C)(C)OC(=O)N1CCC(c2nc(-c3ccc4cnn(CC5COC5)c4c3)no2)CC1 [Compound 661] |  |  | IC50 (SCD5; [1]): 1540 nM; IC50 (SCD1; [2]): > 45 µM
31 | O=C(N1CCC(c2noc(-c3ccnc(Cl)c3)n2)CC1)C1(F)CC1 [Compound 1122] | 13200 nM | > 45 µM | 
32 | CC(C)(C)OC(=O)N1CCC(c2nc(-c3ccc4oc(=O)n(C5COC5)c4c3)no2)CC1 [Compound 649] |  |  | IC50 (SCD5; [1]): 259 nM; IC50 (SCD1; [2]): > 45 µM
33 | COC(=O)N1CCC(c2noc(-c3ccc4ccn(C5COC5)c4c3)n2)CC1 [Compound 1036] | 10 nM | > 45 µM | 
34 | CC(C)n1cc2c(n1)CN(c1noc(C3CCN(C(=O)OC(C)(C)C)CC3)n1)CC2 [Compound 826] | 1990 nM | > 45 µM | 
35 | CC(C)(C)OC(=O)N1CCC(c2nc(-c3ccc4cnn(C5CC5)c4c3)no2)CC1 [Compound 360] |  |  | IC50 (SCD5; [3]): > 45000 nM; SCD5 % Max Inhibition (SCD5; [3]): 2.38%; SCD1 % Max Inhibition (SCD1; [4]): 64.03%
36 | Cc1nn(C)c2cc(-c3noc(C4CCN(C(=O)CC5CNC5)CC4)n3)ccc12 [Compound 680] |  |  | IC50 (SCD5; [1]): > 45000 nM; IC50 (SCD1; [2]): > 45 µM
37 | CC(C)n1ncc2ccc(-c3noc(C4CCN(C(=O)C5(O)CC5)CC4)n3)cc21 [Compound 779] | 15300 nM | > 45 µM | 
38 | COC1(C(=O)N2CCC(c3nc(-c4ccc5cnn(C(C)C)c5c4)no3)CC2)CC1 [Compound 797] | 133 nM | > 45 µM | 

Row | SMILES | IC50 (SCD5; humanized yeast strain, 40 h) | IC50 (SCD1; humanized yeast strain, 40 h) | other results
39 | CC(C)n1ncc2ccc(-c3noc(N4CCN5C(=O)N(C)CC5C4)n3)cc21 (stereo not drawn) [Compound 1108] | > 45000 nM | > 45 µM | 
40 | CC(C)(C)OC(=O)N1CCC(c2nc(-c3ccc4cnn(C(C)(C)CO)c4c3)no2)CC1 [Compound 736] |  |  | IC50 (SCD5; [1]): 260 nM; IC50 (SCD1; [2]): 32.6 µM
41 | CC(C)(C)OC(=O)N1CCC(c2noc(-c3ccnc(C4CCOC4)c3)n2)CC1 (stereo not drawn) [Compound 999] | 10 nM | > 45 µM | 
42 | CC(C)OC(=O)N1CCC(c2nc(-c3ccc4cnn(C(C)C)c4c3)no2)CC1 [Compound 357] |  |  | IC50 (SCD5; [3]): > 45000 nM; SCD5 % Max Inhibition (SCD5; [3]): 2.31%; SCD1 % Max Inhibition (SCD1; [4]): 64.32%
43 | CC1(CC(=O)N2CCC(c3nc(-c4ccc5cnn(C6COC6)c5c4)ns3)CC2)CC1 [Compound 801] | 363 nM | > 45 µM | 
44 | O=C(N1CCC(c2noc(-c3ccnc(C4CCOC4)c3)n2)CC1)C1(C(F)(F)F)CC1 (stereo not drawn) [Compound 1177] | 840 nM | > 45 µM | 
45 | COC(=O)N1CCC(c2noc(-c3ccc4cnn(C5CNC5)c4c3)n2)CC1 [Compound 948] | > 45000 nM | > 45 µM | 
46 | CC(C)(C)OC(=O)N1CCC(c2nc(-c3ccc4cncn4c3)no2)CC1 [Compound 825] | 9490 nM | > 45 µM | 
47 | CC1(OC(=O)N2CCC(c3noc(-c4ccnc(C5CCOC5)c4)n3)CC2)CC1 (stereo not drawn) [Compound 1016] | 61.4 nM | > 45 µM | 
48 | CC1(OC(=O)N2CCC(c3noc(-c4ccnc(NC5COC5)c4)n3)CC2)CC1 [Compound 1151] | 1090 nM | > 45 µM | 
49 | CC(C)(C)OC(=O)N1CCN(c2noc(-c3ccc4cnn(C5COC5)c4c3)n2)CC(F)(F)C1 [Compound 1012] | 10 nM | 15 µM | 
50 | CC(C)n1ncc2ccc(-c3noc(N4CCC(C5COC5)CC4)n3)cc21 [Compound 743] |  |  | IC50 (SCD5; [1]): 14800 nM; IC50 (SCD1; [2]): > 45 µM
51 | CC(C)C(=O)N1CCN(c2noc(-c3ccnc(Cl)c3)n2)CC1 [Compound 1119] | > 45000 nM | > 45 µM | 
52 | CC(C)(C)COC(=O)N1CC(c2nc(-c3ccc4cnn(C5COC5)c4c3)no2)C1 [Compound 709] |  |  | IC50 (SCD5; [1]): 4770 nM; IC50 (SCD1; [2]): > 45 µM
53 | CC(C)(C)OC(=O)N1C[C@@H]2[C@H](C1)[C@H]2C(=O)NCc1ccc(C#N)cc1 [Compound 770] | > 45000 nM | > 45 µM | 
54 | CC(C)n1ncc2ccc(-c3noc(C4CCN(C(=O)C5(C#N)CC5)CC4)n3)cc21 [Compound 688] |  |  | IC50 (SCD5; [1]): 1500 nM; IC50 (SCD1; [2]): > 45 µM
55 | CC(C)(C)OC(=O)N1C[C@@H]2[C@H](C1)[C@H]2NC(=O)OCc1ccccc1 [Compound 774] | > 45000 nM | > 45 µM | 
56 | CC(C)(C)OC(=O)N1CCC(c2nc(-c3ccc4cnn(C5CCOC5)c4c3)no2)CC1 (stereo not drawn) [Compound 650] |  |  | IC50 (SCD5; [1]): 13 nM; IC50 (SCD1; [2]): 4.36 µM
